Values of other authors, collected in US7014865B1, “Natural formulation for the treatment and prevention of depression, containing St. John's Wort and derivatives of dihydro- and tetrahydrofolic acid” (Merck Patent GmbH, priority 1998, dated 2006).

Experiments:
Conditions in all cases: in vitro
uptake of dopamine = tested on: uptake of dopamine
uptake of serotonin = tested on: uptake of serotonin
uptake of GABA = tested on: uptake of GABA
uptake of noradrenaline = tested on: uptake of noradrenaline
uptake of L-glutamate = tested on: uptake of L-glutamate

hyperforin
potent inhibitor: inhibition of uptake of dopamine (uptake of dopamine) | inhibition of uptake of serotonin (uptake of serotonin) | inhibition of uptake of GABA (uptake of GABA) | inhibition of uptake of noradrenaline (uptake of noradrenaline) | inhibition of uptake of L-glutamate (uptake of L-glutamate)
